# Data as given in patent US10813929B2, “Treating cancer with ATR inhibitors” (VERTEX PHARMACEUTICALS INCORPORATED, priority 2011, dated 2020).
# Tests used:
# [1] = test system: HeLa, PSN1, MiaPaca cells; experiment: Radiosensitivity assays of FIGS. 8 to 12 (clonogenic survival, foci, cell cycle); assay type: cell-based
# Procedure: Small scale clonogenic survival assays were performed on HeLa cells treated with the different ATR inhibitors at increasing concentrations followed by irradiation at 6 Gy. Data is plotted as decrease in clonogenic survival in relation to the DMSO-treated cells for both irradiated (SF 6 Gy, pink line) and unirradiated cells (plating efficiency, PE; blue line). A high degree of increased radiosensitivity can be seen as a large decrease in survival after irradiation accompanied by a small decrease in unirradiated survival at a specific drug concentration.
# FIG. 9. […] PSN1 and MiaPaca cells were plated at low densities, treated with the drugs indicated and assessed for clonogenic survival. • B) Clonogenic survival of PSN1, MiaPaca, and MRCS cells pretreated with Compounds 821, 822, 823 and 824 drugs followed by irradiation. Cells were plated at low densities, treated with drugs indicated 1 h prior to irradiation and assessed for clonogenic survival.
# MiaPaca cells were plated at low densities and drug was added at various time points in relation to the 4 Gy radiation treatment: 1 h prior to IR, 5 min after IR, 2 h or 4 h after IR; and removed at various time points. […] Clonogenic survival was assessed after 14 days. […]
# FIG. 11. […] The percentage of cells containing more than a certain number of foci was quantitated. • B) Time course of DNA damage foci. […]
# [2] = test system: PSN-1 pancreatic cancer xenograft; experiment: PSN-1 pancreatic cancer xenograft model with ionizing radiation; assay type: in vivo; conditions: PSN-1 xenograft; FIGS. 14 and 15
# pancreatic cancer cells = experiment: Cell cycle analysis by flow cytometry after irradiation; assay type: cell-based; conditions: 1 μM VE-821 1 h prior to 6 Gy; FIG. 7 (hypoxic), FIG. 4
# Procedure: VE-821 (1 μM) was added 1 h prior to 6 Gy irradiation and left for the duration of the experiment. Cells were lifted and fixed at 12 h or 24 h after irradiation, stained with propidium iodide and analysed for cell cycle distribution by flow cytometry (n=3) Cells were pre-incubated under hypoxic (0.5% O2) conditions for 6 h and 1 μM VE-821 was added 1 h prior to irradiation (6 Gy). Cells were transferred to normoxia 1 h after irradiation and were lifted and fixed at 12 h or 24 h after irradiation, stained with propidium iodide and analysed for cell cycle distribution by flow cytometry (n=3). Cells growing in 6-well dishes were treated with 1 μM VE-821 drug 1 h prior to 6 Gy irradiation. Cells were incubated for 6 h before irradiation under oxia (21% O2) or hypoxia (0.5% O2) using tightly sealed chambers. At multiple time points, cells were lifted in trypsin and fixed in 70% ethanol and stored at 4° C. Cells were incubated with propidium iodide (50 μg/ml in PBS containing 200 μg/ml RNAse) for 1 h at room temperature and analysed by flow cytometry (FACSort, Becton Dickinson). Cell cycle phase was quantitated using ModFit Cell Cycle Analysis software.
# [3] = test system: DNA damage foci and RAD51 foci; experiment: Nuclear foci analysis (γH2AX, 53BP1, RAD51); assay type: cell-based; conditions: 1 μM VE-821, 6 Gy
# Procedure: Cells were treated with 1 μM VE-821 at various time points in relation to 6 Gy irradiation, as indicated, and fixed at 24 h post-irradiation. Subsequently, cells were stained for (A) γH2AX and (B) 53BP1 foci and the percentage of cells with more than 7 and 5 foci per cell was quantitated, respectively. C, for analysing Rad51 foci formation, cells were fixed at 6 h post-irradiation and the percentage of cells with more than 9 foci per cell was quantitated. Representative images are shown on the right (n=3). *, P<0.05 Cells growing in 96-well plates were treated with 1 μM VE-821 drug 1 h prior to 6 Gy irradiation and fixed in 3% formaldehyde at multiple time points. Cells were subsequently pearmeabalised and blocked in PBS with 0.1% Triton 1% BSA (w/v). Cells were incubated with primary antibody overnight at 4° C. and after a PBS wash incubated with fluorescently labeled secondary antibody followed gy a PBS wash and nuclear staining with DAPI. Images were acquired and foci quantitated using an IN Cell Analyzer 1000 automated epifluorescence microscope and analysis software (GE Healthcare, Cahlfont St. Giles, UK)
Compound,sensitization of cancer cells to radiation therapy [1],antitumor effects of ionizing radiation (tumor volume over time) [2],damage-induced cell cycle checkpoints (pancreatic cancer cells),"RAD51 foci formation ([3]; fixed 6 h post-irradiation, FIG. 5)","53BP1 and γH2AX foci number ([3]; fixed 24 h post-irradiation, FIG. 5)","repair of DNA damage by homologous recombination ([3]; FIG. 5 panels A, B, C)"
CNCc1ccc(-c2cc(-c3nc(-c4ccc(S(=O)(=O)C(C)C)cc4)cnc3N)on2)cc1 [VE-822],sensitize cancer cells to radiation therapy,enhances the antitumor effects of ionizing radiation,–,–,–,–
CS(=O)(=O)c1ccc(-c2cnc(N)c(C(=O)Nc3ccccc3)n2)cc1 [VE-821],sensitize cancer cells to radiation therapy,–,disrupts damage-induced cell cycle checkpoints,reduces RAD51 foci formation,increases 53BP1 and γH2AX foci number,inhibits repair of DNA damage by homologous recombination
